Entries after “also recorded” stand apart in the source; their conditions may differ. Like-named read-outs stand apart in the source and are kept apart here.
Legend:
[1] = biological target: T1, ELIC (Dickeya chrysanthemi, UniProt P0C7B7); assay: cell-based; assay type: cell-based, Erwinia chrysanthemi
T1 construct: expressed in transfected cells; host or cells: Xenopus laevis oocytes (cRNA injection, pTLN vector)
Source text: To identify ligands that activate ELIC we have expressed the protein in Xenopus laevis oocytes and investigated the response to potential agonists by the two-electrode voltage-clamp technique. Based on the volume and chemical properties of the proposed ligand binding region and the presence of positively charged ions bound to this site, we reasoned that parts of the agonists might have a cationic character. […] Our library included different natural products such as amino acids and their derivatives, metabolites, and related synthetic substances (Figure S3A).
Constructs containing the gene of either the WT channel or point mutants preceded by the signal sequence of the chicken α7nAchR were cloned into the pTLN vector for expression in X. laevis oocytes. After linearization of the plasmid DNA by MluI, capped complementary RNA was transcribed with the mMessage mMachine kit (Ambion) and purified with the RNeasy kit (Qiagen). For expression, 1–50 ng of RNA was injected into defolliculated oocytes. Two-electrode voltage clamp measurements were performed one day after injection at 20°C (OC-725B, Warner Instrument Corp.). […] Cysteamine containing solutions were supplemented with 1 mM DTT.

[2] = biological target: T2, ELIC R91A (Dickeya chrysanthemi, UniProt P0C7B7, R91A); assay: Two-electrode voltage clamp of ELIC point mutant R91A in oocytes; assay type: cell-based, Erwinia chrysanthemi
T2 construct: expressed in transfected cells; host or cells: Xenopus laevis oocytes (cRNA injection, pTLN vector)
T2 sequence (P0C7B7 whole entry R91A): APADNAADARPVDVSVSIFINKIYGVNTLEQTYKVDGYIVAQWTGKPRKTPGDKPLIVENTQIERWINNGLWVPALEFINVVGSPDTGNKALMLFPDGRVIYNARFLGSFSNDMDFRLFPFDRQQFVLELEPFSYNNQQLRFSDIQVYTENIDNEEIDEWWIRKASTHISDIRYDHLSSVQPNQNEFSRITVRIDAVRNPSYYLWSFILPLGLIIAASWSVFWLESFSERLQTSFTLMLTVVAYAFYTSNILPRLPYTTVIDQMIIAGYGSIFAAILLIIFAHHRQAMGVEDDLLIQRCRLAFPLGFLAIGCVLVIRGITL
Source text: (§1) To investigate the role of residues surrounding the bound ligand for channel activation, we have mutated single residues to alanine and we have measured activation with the two-electrode voltage-clamp technique (Table 2). For many mutants there was no response to the addition of cysteamine. This was the case for all investigated residues of the principal site, such as Glu77 and Glu131, that may interact with the primary amino group and hydrophobic and aromatic residues (i.e., Phe187, Phe133, Tyr174, Ile79) that surround the aliphatic carbon atoms of the ligand. The effect of mutations on the complementary side, in contrast, was diverse and in some cases less drastic. The mutations of Phe19 on β-1 and Val40 on β-2 shifted the activation towards higher agonist concentrations (Figure 4B).
(§2) Constructs containing the gene of either the WT channel or point mutants preceded by the signal sequence of the chicken α7nAchR were cloned into the pTLN vector for expression in X. laevis oocytes. After linearization of the plasmid DNA by MluI, capped complementary RNA was transcribed with the mMessage mMachine kit (Ambion) and purified with the RNeasy kit (Qiagen). For expression, 1–50 ng of RNA was injected into defolliculated oocytes. Two-electrode voltage clamp measurements were performed one day after injection at 20°C (OC-725B, Warner Instrument Corp.). Currents were recorded in bath solutions containing 10 mM HEPES (pH 7), 130 mM NaCl, and the respective ligands. Cysteamine containing solutions were supplemented with 1 mM DTT.

[3] = biological target: T3, ELIC V40A (Dickeya chrysanthemi, UniProt P0C7B7, V40A); assay: Two-electrode voltage clamp of ELIC point mutant V40A in oocytes; assay type: cell-based, Erwinia chrysanthemi
T3 construct: expressed in transfected cells; host or cells: Xenopus laevis oocytes (cRNA injection, pTLN vector)
T3 sequence (P0C7B7 whole entry V40A): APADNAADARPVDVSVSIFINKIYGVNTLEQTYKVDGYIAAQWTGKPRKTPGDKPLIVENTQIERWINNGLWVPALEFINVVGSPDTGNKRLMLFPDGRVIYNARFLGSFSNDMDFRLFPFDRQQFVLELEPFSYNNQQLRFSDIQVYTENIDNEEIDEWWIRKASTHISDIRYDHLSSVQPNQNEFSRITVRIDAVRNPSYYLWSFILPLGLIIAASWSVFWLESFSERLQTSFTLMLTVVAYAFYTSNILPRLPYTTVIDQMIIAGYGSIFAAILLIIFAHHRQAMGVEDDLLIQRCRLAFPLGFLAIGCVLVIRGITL
Source text: as §1, §2

[4] = biological target: T4, ELIC F19A (Dickeya chrysanthemi, UniProt P0C7B7, F19A); assay: Two-electrode voltage clamp of ELIC point mutant F19A in oocytes; assay type: cell-based, Erwinia chrysanthemi; details: read-out: EC50 of activation
T4 construct: expressed in transfected cells; host or cells: Xenopus laevis oocytes (cRNA injection, pTLN vector)
T4 sequence (P0C7B7 whole entry F19A): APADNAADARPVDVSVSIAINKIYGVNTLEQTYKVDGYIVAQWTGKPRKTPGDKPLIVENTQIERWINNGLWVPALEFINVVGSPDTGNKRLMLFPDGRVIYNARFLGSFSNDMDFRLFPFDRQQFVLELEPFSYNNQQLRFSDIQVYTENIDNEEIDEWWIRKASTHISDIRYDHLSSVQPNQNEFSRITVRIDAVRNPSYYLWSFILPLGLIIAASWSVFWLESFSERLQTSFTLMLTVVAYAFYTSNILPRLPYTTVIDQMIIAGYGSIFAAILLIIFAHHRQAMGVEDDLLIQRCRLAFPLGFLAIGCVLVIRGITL
Source text: as §1
as §2, with “Two-electrode voltage clamp measurements were performed one day after injection at 20°C (OC-725B, Warner Instrument Corp.).” left out, “Cysteamine containing solutions were supplemented with 1 mM DTT.” left out

[5] = biological target: T5, ELIC F246A (Dickeya chrysanthemi, UniProt P0C7B7, F246A); assay: Two-electrode voltage clamp of ELIC pore mutant F246A in oocytes; assay type: cell-based, Erwinia chrysanthemi
T5 construct: expressed in transfected cells; host or cells: Xenopus laevis oocytes (cRNA injection, pTLN vector)
T5 sequence (P0C7B7 whole entry F246A): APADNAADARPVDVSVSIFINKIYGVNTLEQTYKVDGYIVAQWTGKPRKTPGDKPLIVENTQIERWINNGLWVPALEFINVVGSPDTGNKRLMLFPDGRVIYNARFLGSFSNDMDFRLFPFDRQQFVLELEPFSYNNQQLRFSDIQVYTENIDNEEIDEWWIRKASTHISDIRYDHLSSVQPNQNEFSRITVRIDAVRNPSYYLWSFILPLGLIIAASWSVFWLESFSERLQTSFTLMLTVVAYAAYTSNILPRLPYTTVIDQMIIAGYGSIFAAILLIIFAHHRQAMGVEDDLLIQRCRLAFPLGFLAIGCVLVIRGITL
Source text: In contrast to the extracellular domain, the pore of ELIC resembles cation selective members of the family that include nAChRs, serotonin receptors, and the prokaryotic channel GLIC (Figure S1G). In cation selective pLGICs, three layers of hydrophobic side-chains provide an overall apolar character to the extracellular half of the pore region while the following two layers of polar residues and a layer of negatively charged residues render the intracellular half hydrophilic,[30]. […] To investigate the role of this aromatic group for channel opening, we have mutated it to alanine and studied the mutant by X-ray crystallography and electrophysiology. […] This shift is due to a mutation of a residue located remote from the ligand binding site and thus likely reflects a decreased efficacy of the channel.
as §2, with “Two-electrode voltage clamp measurements were performed one day after injection at 20°C (OC-725B, Warner Instrument Corp.).” left out, “Cysteamine containing solutions were supplemented with 1 mM DTT.” left out

[6] = biological target: T1, ELIC; assay: Patch clamp of excised outside-out patches, fast solution exchange (activation and deactivation kinetics); assay type: cell-based, Erwinia chrysanthemi; details: -60 mV, n = 19, errors s.d., upper limit
Experimental: We have thus used this molecule as an agonist in most subsequent experiments. […] Stable currents over a period of seconds were obtained upon addition of high micromolar concentrations of cysteamine to the extracellular medium (Figure 3A). At longer incubations with the ligand, however, the currents decayed, which is indicative for a slow desensitization of the channel (Figure S4A). […] To follow the time-course of activation and deactivation, we have investigated excised outside-out patches in response to fast solution exchange. A similar phenotype of currents as previously seen in two-electrode voltage clamp recordings, although with faster kinetics of desensitization, was also observed for macroscopic currents in a patch clamp experiment (Figure 3B, Figure S4B). At 5 mM cysteamine, channel activation and deactivation can be approximated by exponential functions with time constants in the ms range (τact = 20±5 ms, n = 19, τdeact = 53±7 ms, n = 19, all errors are s.d.). […]
Membrane patches of X. laevis oocytes were recorded in the excised outside-out configuration 2–3 d after injection of mRNA with an Axopatch 200B amplifier (Axon Instruments) at 20°C. Data were sampled at 100 µs, filtered with 1,000 Hz, and analyzed using Clampfit (Axon Instruments, Inc.). […]

[7] = Protonation of the sulfhydryl group of cysteamine; assay type: physicochemical; details: at the pH of the recording solution
[8] = biological target: T6, ELIC Glu77 mutated to alanine (Dickeya chrysanthemi, UniProt P0C7B7, E77A); assay: Two-electrode voltage clamp of ELIC Glu77 alanine mutant; assay type: cell-based, Erwinia chrysanthemi
T6 construct: expressed in transfected cells; host or cells: Xenopus laevis oocytes (cRNA injection, pTLN vector)
T6 sequence (P0C7B7 whole entry E77A): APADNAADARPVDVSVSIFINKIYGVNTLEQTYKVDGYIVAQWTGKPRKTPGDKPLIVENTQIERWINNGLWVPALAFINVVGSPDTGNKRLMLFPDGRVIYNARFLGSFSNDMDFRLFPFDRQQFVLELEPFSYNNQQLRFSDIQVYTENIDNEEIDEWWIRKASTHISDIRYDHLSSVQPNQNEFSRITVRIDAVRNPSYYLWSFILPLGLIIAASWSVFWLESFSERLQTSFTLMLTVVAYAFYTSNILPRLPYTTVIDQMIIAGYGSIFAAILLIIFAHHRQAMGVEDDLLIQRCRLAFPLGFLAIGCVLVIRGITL
Source text: as §1
as §2, with “Two-electrode voltage clamp measurements were performed one day after injection at 20°C (OC-725B, Warner Instrument Corp.).” left out, “Cysteamine containing solutions were supplemented with 1 mM DTT.” left out

[9] = biological target: T7, ELIC Glu131 mutated to alanine (Dickeya chrysanthemi, UniProt P0C7B7, E131A); assay: Two-electrode voltage clamp of ELIC Glu131 alanine mutant; assay type: cell-based, Erwinia chrysanthemi
T7 construct: expressed in transfected cells; host or cells: Xenopus laevis oocytes (cRNA injection, pTLN vector)
T7 sequence (P0C7B7 whole entry E131A): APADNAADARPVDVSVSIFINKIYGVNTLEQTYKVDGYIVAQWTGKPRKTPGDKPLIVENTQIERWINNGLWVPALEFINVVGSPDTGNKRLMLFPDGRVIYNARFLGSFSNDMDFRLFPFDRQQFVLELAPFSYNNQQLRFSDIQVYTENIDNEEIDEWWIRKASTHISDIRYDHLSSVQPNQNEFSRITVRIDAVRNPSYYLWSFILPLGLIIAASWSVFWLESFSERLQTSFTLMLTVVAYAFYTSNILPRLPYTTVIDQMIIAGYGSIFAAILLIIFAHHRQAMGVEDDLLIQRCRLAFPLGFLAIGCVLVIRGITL
Source text: as §1
as §2, with “Two-electrode voltage clamp measurements were performed one day after injection at 20°C (OC-725B, Warner Instrument Corp.).” left out, “Cysteamine containing solutions were supplemented with 1 mM DTT.” left out

[10] = biological target: T8, ELIC Phe187 mutated to alanine (Dickeya chrysanthemi, UniProt P0C7B7, F187A); assay: Two-electrode voltage clamp of ELIC Phe187 alanine mutant; assay type: cell-based, Erwinia chrysanthemi
T8 construct: expressed in transfected cells; host or cells: Xenopus laevis oocytes (cRNA injection, pTLN vector)
T8 sequence (P0C7B7 whole entry F187A): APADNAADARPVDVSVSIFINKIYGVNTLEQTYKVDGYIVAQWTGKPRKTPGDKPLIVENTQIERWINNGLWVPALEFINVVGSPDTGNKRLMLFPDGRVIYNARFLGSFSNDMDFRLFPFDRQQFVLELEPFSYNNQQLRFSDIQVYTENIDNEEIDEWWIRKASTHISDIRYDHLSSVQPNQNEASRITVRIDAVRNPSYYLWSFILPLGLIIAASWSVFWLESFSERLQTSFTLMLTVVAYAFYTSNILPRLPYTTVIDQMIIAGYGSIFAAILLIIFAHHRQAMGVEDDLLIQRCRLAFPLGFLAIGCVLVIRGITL
Source text: as §1
as §2, with “Two-electrode voltage clamp measurements were performed one day after injection at 20°C (OC-725B, Warner Instrument Corp.).” left out, “Cysteamine containing solutions were supplemented with 1 mM DTT.” left out

[11] = biological target: T9, ELIC Phe133 mutated to alanine (Dickeya chrysanthemi, UniProt P0C7B7, F133A); assay: Two-electrode voltage clamp of ELIC Phe133 alanine mutant; assay type: cell-based, Erwinia chrysanthemi
T9 construct: expressed in transfected cells; host or cells: Xenopus laevis oocytes (cRNA injection, pTLN vector)
T9 sequence (P0C7B7 whole entry F133A): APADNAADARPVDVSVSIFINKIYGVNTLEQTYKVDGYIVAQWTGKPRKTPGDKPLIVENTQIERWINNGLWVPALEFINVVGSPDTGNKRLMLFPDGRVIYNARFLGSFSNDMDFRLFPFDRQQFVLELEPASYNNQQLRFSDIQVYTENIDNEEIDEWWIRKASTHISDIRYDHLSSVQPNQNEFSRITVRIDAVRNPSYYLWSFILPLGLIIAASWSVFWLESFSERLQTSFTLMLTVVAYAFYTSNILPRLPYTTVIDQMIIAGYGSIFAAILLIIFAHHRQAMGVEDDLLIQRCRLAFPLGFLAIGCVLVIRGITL
Source text: as §1
as §2, with “Two-electrode voltage clamp measurements were performed one day after injection at 20°C (OC-725B, Warner Instrument Corp.).” left out, “Cysteamine containing solutions were supplemented with 1 mM DTT.” left out

[12] = biological target: T10, ELIC Tyr174 mutated to alanine (Dickeya chrysanthemi, UniProt P0C7B7, Y174A); assay: Two-electrode voltage clamp of ELIC Tyr174 alanine mutant; assay type: cell-based, Erwinia chrysanthemi
T10 construct: expressed in transfected cells; host or cells: Xenopus laevis oocytes (cRNA injection, pTLN vector)
T10 sequence (P0C7B7 whole entry Y174A): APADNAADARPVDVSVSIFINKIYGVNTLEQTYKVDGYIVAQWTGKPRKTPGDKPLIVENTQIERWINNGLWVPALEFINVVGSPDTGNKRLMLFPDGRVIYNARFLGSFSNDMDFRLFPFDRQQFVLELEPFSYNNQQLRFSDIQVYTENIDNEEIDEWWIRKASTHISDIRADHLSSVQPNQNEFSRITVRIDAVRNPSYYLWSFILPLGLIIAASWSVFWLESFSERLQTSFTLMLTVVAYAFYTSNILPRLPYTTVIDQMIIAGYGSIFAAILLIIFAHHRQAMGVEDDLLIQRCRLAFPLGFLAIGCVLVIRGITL
Source text: as §1
as §2, with “Two-electrode voltage clamp measurements were performed one day after injection at 20°C (OC-725B, Warner Instrument Corp.).” left out, “Cysteamine containing solutions were supplemented with 1 mM DTT.” left out

[13] = biological target: T11, ELIC Ile79 mutated to alanine (Dickeya chrysanthemi, UniProt P0C7B7, I79A); assay: Two-electrode voltage clamp of ELIC Ile79 alanine mutant; assay type: cell-based, Erwinia chrysanthemi
T11 construct: expressed in transfected cells; host or cells: Xenopus laevis oocytes (cRNA injection, pTLN vector)
T11 sequence (P0C7B7 whole entry I79A): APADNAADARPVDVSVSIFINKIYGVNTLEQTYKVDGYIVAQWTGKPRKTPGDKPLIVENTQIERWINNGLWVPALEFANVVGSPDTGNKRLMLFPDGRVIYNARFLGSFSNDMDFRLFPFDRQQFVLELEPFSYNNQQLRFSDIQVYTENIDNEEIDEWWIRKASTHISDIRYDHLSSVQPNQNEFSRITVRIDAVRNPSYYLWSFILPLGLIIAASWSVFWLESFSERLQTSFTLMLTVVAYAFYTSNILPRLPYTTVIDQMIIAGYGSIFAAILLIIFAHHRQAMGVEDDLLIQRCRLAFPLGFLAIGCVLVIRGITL
Source text: as §1
as §2, with “Two-electrode voltage clamp measurements were performed one day after injection at 20°C (OC-725B, Warner Instrument Corp.).” left out, “Cysteamine containing solutions were supplemented with 1 mM DTT.” left out

[14] = biological target: T12, ELIC Asn103 mutated to alanine (Dickeya chrysanthemi, UniProt P0C7B7, N103A); assay: Two-electrode voltage clamp of ELIC Asn103 alanine mutant; assay type: cell-based, Erwinia chrysanthemi
T12 construct: expressed in transfected cells; host or cells: Xenopus laevis oocytes (cRNA injection, pTLN vector)
T12 sequence (P0C7B7 whole entry N103A): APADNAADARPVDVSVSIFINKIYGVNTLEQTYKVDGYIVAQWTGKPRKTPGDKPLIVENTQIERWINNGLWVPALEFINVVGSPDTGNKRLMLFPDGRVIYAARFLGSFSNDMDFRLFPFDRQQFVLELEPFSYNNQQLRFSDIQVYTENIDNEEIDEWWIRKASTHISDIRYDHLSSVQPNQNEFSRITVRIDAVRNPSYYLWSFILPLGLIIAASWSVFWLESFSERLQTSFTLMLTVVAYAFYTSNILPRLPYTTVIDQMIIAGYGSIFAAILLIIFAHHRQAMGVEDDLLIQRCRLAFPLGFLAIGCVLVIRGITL
Source text: as §1
as §2, with “Two-electrode voltage clamp measurements were performed one day after injection at 20°C (OC-725B, Warner Instrument Corp.).” left out, “Cysteamine containing solutions were supplemented with 1 mM DTT.” left out

[15] = WT, pH 7.0, two-electrode voltage clamp, -60 mV, fit to Hill equation, read-out: EC50 of activation of ELIC
[16] = ligand added to the extracellular solution, 10 mM, -60 mV, compared with 2 mM cysteamine
[17] = pH 7.0, averages and s.d. of six measurements

T1 sequence (P0C7B7 whole entry): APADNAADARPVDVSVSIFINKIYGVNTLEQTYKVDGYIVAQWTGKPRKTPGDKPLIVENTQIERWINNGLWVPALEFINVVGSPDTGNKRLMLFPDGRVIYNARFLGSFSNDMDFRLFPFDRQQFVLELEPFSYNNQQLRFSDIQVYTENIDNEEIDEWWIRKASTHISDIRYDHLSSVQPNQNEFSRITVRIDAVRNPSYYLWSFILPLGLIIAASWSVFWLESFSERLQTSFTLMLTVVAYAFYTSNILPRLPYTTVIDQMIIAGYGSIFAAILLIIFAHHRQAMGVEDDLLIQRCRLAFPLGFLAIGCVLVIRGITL

In the case of `NCCCC(=O)O` [GABA], the “n (Hill coefficient)” value ([1]; WT, pH 7.0) is reported as 3.9, the EC50 [1, 15] is reported as 2400 µM and the “activating current response of ELIC to the ligand” value (shortened to “activating current response”) [1, 16] is reported as “activating response at low mM concentrations”. For the same compound, the Imax/Imax cysteamine [1, 17] was 0.79±0.09.
For `CCN` [Ethylamine], the “activating current response” value [1, 16] was “activate the channel”.
In the case of `NCCCCCN` [cadaverine], the “activating current response” value [1, 16] is reported as “not”.
With `NCCCCN` [putrescine] the EC50 [1] was 16000 µM, the “activating current response” value [1] was “activate ELIC; also recorded: only observed at higher pH” and the “n (Hill coefficient)” value ([1]; pH 8) was 2.4. The “n (Hill coefficient), concentration of monovalent putrescine” value ([1]; pH 8) was 2.4 and the Imax/Imax cysteamine ([1]; pH 9) was 1.03±0.07.
In the case of `CC(=O)OCC[N+](C)(C)C` [acetylcholine], the “activating current response” value [1, 16] is reported as “ineffective”.
In the case of diaminopropane, the “n (Hill coefficient)” value ([1]; WT, pH 8.0) is reported as 3.1, the EC50 ([1]; WT, pH 8.0, two-electrode voltage clamp, -60 mV, read-out: EC50 of activation of ELIC) is reported as 3000 µM and the Imax/Imax cysteamine ([1]; pH 9.0, averages and s.d. of six measurements) is reported as 1.08±0.03.
In the case of `NCCBr` [bromoethylamine], the “n (Hill coefficient)” value ([1]; WT, pH 7.0) is reported as 3.1, the EC50 [1, 15] is reported as 885 µM and the “activating current response” value [1, 16] is reported as “opening the channel”. It also gave an Imax/Imax cysteamine [1, 17] of 0.94±0.04.
For `NCCS` [cysteamine], the “n (Hill coefficient)” value ([1]; WT, pH 7.0) was 2.7, the EC50 [1, 15] was 365 µM and the EC50 ([1]; WT, voltage-independent activation, read-out: EC50 of activation of ELIC) was 365 µM. For the same compound, the “activating current response” value [1, 16] was “most efficacious; also recorded: strongest response at low ligand concentration”, the Imax/Imax cysteamine [1, 17] was 1 and the “n (Hill coefficient)” value ([2]; mutant R91A) was 2.6. The “fold decrease of the EC50” value ([2]; mutant R91A compared with WT) was 4 fold, the EC50 ([2]; mutant R91A, read-out: EC50 of activation) was 87 µM and the “n (Hill coefficient)” value [3] was 2.6. For the same compound, the EC50 ([3]; read-out: EC50 of activation) was 1900 µM, the EC50 [4] was greater than 10000 µM and the “n (Hill coefficient)” value [5] was 3.0. The EC50 ([5]; read-out: EC50 of activation) was 2590 µM, the “τact, time constant of channel activation” value ([6]; 5 mM cysteamine) was 20 ± 5 ms and the “τdeact, time constant of channel deactivation” value ([6]; washout of 5 mM cysteamine) was 53 ± 7 ms. The sulfhydryl groups protonated [7] was greater than 96%, the “response to the addition of the ligand” value [8] was “no response” and the “response to the addition of the ligand” value [9] was “no response”. For the same compound, the “response to the addition of the ligand” value [10] was “no response”, the “response to the addition of the ligand” value [11] was “no response” and the “response to the addition of the ligand” value [12] was “no response”. For the same compound, the “response to the addition of the ligand” value [13] was “no response” and the “response to the addition of the ligand” value [14] was “did not show an activating response”.
With `NCCCS` [homocysteamine] the “activating current response” value [1, 16] was “small”.
